Reference: PMC8448693, “Effects of co-formulants on the absorption and secretion of active substances in plant protection products in vitro” (Archives of Toxicology, 2021)

Legend:
[1] = test system: Caco-2 cells; experiment: WST-1 cytotoxicity assay in Caco-2 cells, 24 h exposure; assay type: cell-based; details: WST-1, Caco-2, 24 h; tested range ≤ 960 mg/L
Method: Caco-2 cells (ECACC: 86010202) were purchased from the European Collection of Authenticated Cell Cultures (Salisbury, UK). […] The cells were cultivated at 37 °C, 5% CO2 and […] atmosphere in a cell culture incubator. They were passaged when reaching 80–90% confluence every 2 to 3 days. Passaging was performed at maximum ten times and by aspirating the medium, washing with phosphate-buffered saline (PBS) and incubating with trypsin–EDTA (0.05%) in Dulbecco’s phosphate-buffered saline (Capricorn Scientific GmbH, Ebsdorfergrund, Germany) at 37 °C for 3–5 min.
Cytotoxicity was first analysed by water soluble tetrazolium assay (WST-1; Roche, Berlin, Germany), followed by neutral red uptake (NRU) assay. Caco-2 cells were seeded in 96-well plates at a density of 5000 cells per well and differentiated for three weeks. The cells were incubated with both active substances and all of the above-mentioned co-formulants individually, with a combination of the active substances and the respective surfactants in a ratio in accordance with the products, as well as with the respective products, containing all co-formulants, for 24 h. Eight different concentrations were investigated in culture medium with a final concentration of 0.4% DMSO. Triton X-100 (0.1%) served as a positive control. After 24 h incubation a WST-1 assay was performed according to the protocol provided by the supplier.

[2] = test system: Caco-2 cell membrane fluidity; experiment: DPH fluorescence anisotropy (membrane fluidity) in Caco-2 cells; assay type: cell-based; details: Caco-2, vs untreated control
Method: Furthermore, the active ingredients and the products were investigated at sub-cytotoxic concentrations to rule out any impact of the active ingredients. Briefly, Caco-2 cells were cultivated in six-well plates for 21 days and detached on day 21 using 1 mL Accutase Cell Detachment Solution (ACC-1B, Capricorn Scientific GmbH, Ebsdorfergrund, Germany) per well. After incubation for 20-30 min at room temperature, detached cells were separated by centrifugation. […] Fluorescence anisotropy measurements were performed at 37 °C using a dual monochromator fluorescence spectrometer (model LS 55, PerkinElmer, Rodgau, Germany) fitted with polarizing filters and a stirred cell. Samples were excited with 355 nm vertical polarised light and emission was measured at 430 nm in vertical and horizontal direction. Since fluorescence anisotropy is inversely related to membrane fluidity, decreased DPH fluorescence anisotropy implies an increased membrane fluidity. Three independent experiments were performed (n = 3). The fluorescence anisotropy (r) is defined by following equation: […]: fluorescence intensity measured in direction parallel to the polarised exciting light.IVH: fluorescence intensity measured in direction perpendicular to the polarised exciting light.G: IVH/IHH; correction factor for the instrument.

[3] = target: recombinant human Pgp (Homo sapiens, UniProt P08183); experiment: Pgp ATPase assay (Pgp-Glo assay system)
Method: This study focused on potential effects on Pgp transporters.
Pgp ATPase activity modulation was determined using the Pgp-Glo assay system (Promega, Madison, WI, USA) following the manufacturer's user protocol. Briefly, 25 µg of recombinant human Pgp membrane in Pgp-Glo assay buffer was incubated with different concentrations of each active substance or co-formulant in combination with 200 µM verapamil at 37 °C for 5 min. […] 5 mM MgATP was added to each well and 96-well plates were incubated at 37 °C for 40 min to initiate the reaction. Luminescence of the remaining, unmetabolised ATP was initiated by adding 50 µl of 25 mM ATP detection reagent. After briefly shaking on a plate shaker, 96-well plates were incubated at room temperature for 20 min. The luciferase generated luminescence signal was measured on an Infinite M200 PRO plate reader (Tecan, Maennedorf, Swiss). All measurements were corrected by subtraction of Na3VO4-treated signals (non Pgp ATPase activity) and represented as changes in luminescence signals (ΔRLU). […] Changes in luminescence (ΔRLU) caused by the co-formulants and abamectin incubated with verapamil were compared to ΔRLU caused by verapamil. ΔRLU values of the active ingredients (without verapamil) were compared to ΔRLU values of untreated samples (basal ΔRLU). Each condition was measured in four replicates (n = 4).

Chain of recombinant human Pgp (P08183 whole entry): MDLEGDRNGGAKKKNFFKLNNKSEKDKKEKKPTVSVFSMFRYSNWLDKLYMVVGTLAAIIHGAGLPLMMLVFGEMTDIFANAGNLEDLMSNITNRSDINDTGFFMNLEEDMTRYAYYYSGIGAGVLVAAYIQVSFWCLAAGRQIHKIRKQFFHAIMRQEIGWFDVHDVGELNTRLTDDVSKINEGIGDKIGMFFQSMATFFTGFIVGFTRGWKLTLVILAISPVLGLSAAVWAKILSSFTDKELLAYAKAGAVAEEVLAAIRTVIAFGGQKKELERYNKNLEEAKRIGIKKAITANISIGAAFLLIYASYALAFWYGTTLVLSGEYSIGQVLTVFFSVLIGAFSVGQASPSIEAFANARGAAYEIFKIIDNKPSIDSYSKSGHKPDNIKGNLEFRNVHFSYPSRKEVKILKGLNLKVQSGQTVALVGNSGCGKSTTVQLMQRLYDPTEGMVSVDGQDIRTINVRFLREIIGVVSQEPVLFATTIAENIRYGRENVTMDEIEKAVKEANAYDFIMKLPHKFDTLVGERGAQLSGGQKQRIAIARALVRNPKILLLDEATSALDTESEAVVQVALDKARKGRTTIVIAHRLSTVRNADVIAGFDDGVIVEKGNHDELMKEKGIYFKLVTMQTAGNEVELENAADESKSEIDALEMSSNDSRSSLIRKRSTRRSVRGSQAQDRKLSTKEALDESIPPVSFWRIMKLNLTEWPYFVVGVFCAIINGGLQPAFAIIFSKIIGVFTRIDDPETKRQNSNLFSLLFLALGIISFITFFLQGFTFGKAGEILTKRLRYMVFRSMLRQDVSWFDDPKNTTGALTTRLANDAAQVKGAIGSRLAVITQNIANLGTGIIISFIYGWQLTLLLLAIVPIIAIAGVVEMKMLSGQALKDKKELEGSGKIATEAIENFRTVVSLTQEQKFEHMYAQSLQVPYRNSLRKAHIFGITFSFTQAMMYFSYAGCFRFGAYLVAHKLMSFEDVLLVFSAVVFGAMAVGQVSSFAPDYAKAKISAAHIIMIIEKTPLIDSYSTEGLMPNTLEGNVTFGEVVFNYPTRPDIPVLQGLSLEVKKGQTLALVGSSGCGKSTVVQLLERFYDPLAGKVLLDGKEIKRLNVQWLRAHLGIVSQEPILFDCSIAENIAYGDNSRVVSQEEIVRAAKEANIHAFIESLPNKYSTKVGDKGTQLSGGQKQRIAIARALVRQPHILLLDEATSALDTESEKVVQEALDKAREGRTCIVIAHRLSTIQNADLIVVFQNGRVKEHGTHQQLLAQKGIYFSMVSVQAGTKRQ

In the case of `CCCCCCC(C)OC(=O)COc1nc(F)c(Cl)c(N)c1Cl` (centres unmarked) [fluroxypyr-meptyl], the “cytotoxic effects over the tested concentration range” value [1] is reported as “did not show significant cytotoxic effects” and the “impact on the fluorescence anisotropy” value ([2]; 64 mg/L) is reported as “did not show a statistically significant impact”.

With abamectin the “impact on the fluorescence anisotropy” value ([2]; 10 mg/L) was “did not show a statistically significant impact”, the “stimulation of Pgp ATPase activity compared to the untreated control” value ([3]; 1.25 mg/L (lowest concentration), without verapamil) was “approximately 250%” and the “maximum decreased ΔRLU value compared to the verapamil control” value ([3]; verapamil-stimulated (200 µM) Pgp ATPase activity, 2.5–64 mg/L, concentration-dependent inhibition) was 30%.
